From article PMC9549030, “Structural basis for specific inhibition of the deubiquitinase UCHL1” (Nature Communications, 2022)
Residue numbers refer to the chain shown, from its start. Values joined by “and” are separate entries in the source; they are usually repeats but may differ in a detail not shown here. Equal entries are not always repeated. Where two headings read alike, the source gives them in different places.

Tests used:
UCHL3 [1] = target: T1, UCHL3 (Homo sapiens, UniProt P15374); test: Ub-Rhodamine (Ubiquitin rhodamine cleavage) assay; type: biochemical; conditions: for normalized UCHL3 activity: independent experiments
T1 sequence (P15374 1-230): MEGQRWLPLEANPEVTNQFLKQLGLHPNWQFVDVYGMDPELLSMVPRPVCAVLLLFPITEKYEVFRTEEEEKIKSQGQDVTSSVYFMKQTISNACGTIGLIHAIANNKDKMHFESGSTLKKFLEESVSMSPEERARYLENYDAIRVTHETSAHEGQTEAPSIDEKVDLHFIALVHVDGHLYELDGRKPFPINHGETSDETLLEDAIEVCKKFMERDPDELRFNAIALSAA

[2] = test system: monoubiquitin in U-87 MG cells; test: Quantification of monoubiquitin levels; type: cell-based, human; conditions: 48 h; for monoubiquitin intensity normalized to DMSO (= 1): independent experiments
Method: U-87 MG cells (5 × 10^5/well) were seeded in six-well plates and cultivated for 8 h. Cells were transfected with siRNA as described above. On the next day, cells were cultured in fresh media supplemented with either compounds (final conc. 5 µM) or DMSO, where indicated, for a further 48 h. The media was changed every 24 h to a fresh medium supplemented with compounds (final conc. 5 µM) or DMSO. […] Monoubiquitin band intensities were first normalized to α-tubulin or total protein (Fast Green FCF, TCI) and subsequently normalized to the intensities of monoubiquitin bands in the sample treated with DMSO or siScr (where no DMSO was used) which was set to “1”.

UCHL3 A11I [3] = target: T2, UCHL3 A11I (Homo sapiens, UniProt P15374, A11I); test: Ub-Rhodamine (Ubiquitin rhodamine cleavage) assay; type: biochemical
T2 sequence (P15374 1-230 A11I): T1 sequence (P15374 1-230) with A11I

HEK293 cells = test: Cell growth and viability assay (confluency, propidium iodide); type: cell-based, human; conditions: up to 5 µM, up to 72 h
Method: (§1) HEK293 cells (5 × 10^3/well) or U-87 MG cells (5.5 × 10^3/well) were seeded into 96-well dishes. The following day cells were treated with the compounds at varying concentrations and propidium iodide at 20 µg/mL. The plates were immediately transferred to the Incucyte S3. Bright-field and red fluorescent images were automatically captured at 1 or 2 h intervals for 72 h with 10x magnification. The confluency of cells and the number of PI-positive cells was determined using the Incucyte masking program.

U-87 MG cells = test: as above; type: cell-based, human; conditions: up to 5 µM, up to 72 h
Method: as §1

UCHL1 [4] = target: T3, UCHL1 (Homo sapiens, UniProt P09936); test: Intact protein mass spectrometry; type: binding; conditions: compound 10 µM
T3 sequence (P09936 1-223): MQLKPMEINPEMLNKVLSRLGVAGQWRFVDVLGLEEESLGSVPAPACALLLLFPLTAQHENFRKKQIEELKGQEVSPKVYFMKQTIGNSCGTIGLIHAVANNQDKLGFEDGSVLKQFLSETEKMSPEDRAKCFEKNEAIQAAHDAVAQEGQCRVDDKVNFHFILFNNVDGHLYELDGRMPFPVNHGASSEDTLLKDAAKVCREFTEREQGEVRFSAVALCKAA
Description: (§2) Spectra were deconvoluted with ProMass (Enovatia).

UCHL3 [5] = target: T1, UCHL3; test: Intact protein mass spectrometry; type: binding; conditions: enzyme 3 µM; compound 10 µM; 1 h
Description: as §2

UCHL3 A11I [6] = target: T2, UCHL3 A11I; test: Intact protein mass spectrometry; type: binding; conditions: enzyme 3 µM; compound 10 µM; 1 h
Description: as §2

UCHL3 L168F = target: T4, UCHL3 L168F (Homo sapiens, UniProt P15374, L168F); test: Intact protein mass spectrometry; type: binding; conditions: enzyme 3 µM; compound 10 µM; 1 h
T4 sequence (P15374 1-230 L168F): T1 sequence (P15374 1-230) with L168F
Description: as §2

UCHL1 [7] = target: T3, UCHL1; test: Ub-Rhodamine (Ubiquitin rhodamine cleavage) assay; type: biochemical; conditions: for normalized UCHL1 activity: independent experiments
UCHL3 A11I,L168F = test: Intact protein mass spectrometry; type: binding, human; conditions: enzyme 3 µM; compound 10 µM; 1 h
Description: as §2

[8] = GK13S 0.610352 nM, 1 h preincubation
[9] = GK13S 1.2207 nM, 1 h preincubation
[10] = GK13S 2.44141 nM, 1 h preincubation
[11] = GK13S 4.88281 nM, 1 h preincubation
[12] = GK13S 9.76562 nM, 1 h preincubation
[13] = GK13S 19.5312 nM, 1 h preincubation
[14] = GK13S 39.0625 nM, 1 h preincubation
[15] = 1 h, read-out: UCHL1 activity, data point mean

**Q.** How did the IC50 (UCHL3 [1]; Fig. 6b, catalytic domain, 1 h preincubation, read-out: IC50 (UCHL3)) turn out when `C#CCCCNC(=O)c1ccc(-n2cnc(NC(=O)[C@H]3CCN(C#N)C3)c2)cc1` [GK13S] was run?
**A.** > 10000 nM

**Q.** What about the “normalized UCHL3 activity” value (UCHL3 [1]; GK13S 0.305176 nM, 1 h preincubation) of the same compound?
**A.** 0.9831 and 1.008 and 0.9131 and 1.009

**Q.** And the “normalized UCHL3 activity” value (UCHL3 [1]; [8])?
**A.** 1.008 and 0.9835 and 0.9698 and 1.0514

**Q.** What about the “normalized UCHL3 activity” value (UCHL3 [1]; [9]) of the same compound?
**A.** 0.9936 and 1.008 and 1.001 and 1.003

**Q.** And the “normalized UCHL3 activity” value (UCHL3 [1]; [10])?
**A.** 1.012 and 1.01 and 1.135 and 1.033

**Q.** What about the “normalized UCHL3 activity” value (UCHL3 [1]; [11]) of the same compound?
**A.** 1.012 and 1.015 and 0.9843 and 1.023

**Q.** And the “normalized UCHL3 activity” value (UCHL3 [1]; [12])?
**A.** 0.9453 and 1.0198 and 0.9972 and 1.02

**Q.** And the “normalized UCHL3 activity” value (UCHL3 [1]; [13])?
**A.** 1.009 and 0.9664 and 0.9869 and 0.9884

**Q.** What about the “normalized UCHL3 activity” value (UCHL3 [1]; [14]) of the same compound?
**A.** 0.985 and 0.9652 and 1.009 and 1.006

**Q.** And the “normalized UCHL3 activity” value (UCHL3 [1]; GK13S 78.125 nM, 1 h preincubation)?
**A.** 1.004 and 0.9567 and 0.9151 and 0.8923

**Q.** What about the “normalized UCHL3 activity” value (UCHL3 [1]; GK13S 156.25 nM, 1 h preincubation) of the same compound?
**A.** 0.9712 and 0.9475 and 0.9259 and 1.044

**Q.** And the “normalized UCHL3 activity” value (UCHL3 [1]; GK13S 312.5 nM, 1 h preincubation)?
**A.** 1.024 and 0.9438 and 0.9427 and 1.0301

**Q.** And the “normalized UCHL3 activity” value (UCHL3 [1]; GK13S 625 nM, 1 h preincubation)?
**A.** 1.039 and 0.9614 and 0.9134 and 1.027

**Q.** What about the “normalized UCHL3 activity” value (UCHL3 [1]; GK13S 1250 nM, 1 h preincubation) of the same compound?
**A.** 1.008 and 0.9574 and 0.9187 and 1.016

**Q.** What about the “normalized UCHL3 activity” value (UCHL3 [1]; GK13S 2500 nM, 1 h preincubation) of the same compound?
**A.** 0.975 and 0.9516 and 0.9328 and 0.9957

**Q.** And the “normalized UCHL3 activity” value (UCHL3 [1]; GK13S 5000 nM, 1 h preincubation)?
**A.** 0.9885 and 0.924 and 0.8998 and 0.9921

**Q.** And the “normalized UCHL3 activity” value (UCHL3 [1]; GK13S 10000 nM, 1 h preincubation)?
**A.** 0.972 and 0.9338 and 0.9178 and 0.9898

**Q.** What about the IC50 (UCHL3 [1]; Supplementary Fig. 10c, 3 independent experiments, read-out: IC50 (UCHL3 wt)) of the same compound?
**A.** > 100000 nM

**Q.** And the “levels of free monoubiquitin (western blot)” value ([2]; 5 µM)?
**A.** reduced

**Q.** What about the “monoubiquitin intensity normalized to DMSO (= 1)” value ([2]; siSCr, 5 µM) of the same compound?
**A.** 0.576 and 0.6744 and 0.83 and 0.6532

**Q.** And the “monoubiquitin intensity normalized to DMSO (= 1)” value ([2]; siUCHL3, 5 µM)?
**A.** 0.757 and 0.6937 and 0.5404 and 0.5552 and 0.8593 and 0.6907

**Q.** What about the IC50 (UCHL3 A11I [3]) of the same compound?
**A.** 32000 ± 7000 nM

**Q.** And the “growth arrest and apoptosis” value (HEK293 cells)?
**A.** neither GK13S nor GK16S showed growth arrest nor apoptosis

**Q.** And the “toxicity (cell growth and viability)” value (U-87 MG cells)?
**A.** nontoxic

**Q.** What about the “stoichiometry of covalent binding to UCHL1” value (UCHL1 [4]; UCHL1 3 µM, 16 h) of the same compound?
**A.** bound only once

**Q.** What about the “protein species observed after compound treatment” value (“protein species observed” below) (UCHL1 [4]; enzyme 3 µM, 1 h) of the same compound?
**A.** UCHL1 + 1x GK13S

**Q.** And the “protein species observed” value (UCHL3 [5])?
**A.** free UCHL3

**Q.** And the “protein species observed” value (UCHL3 A11I [6])?
**A.** free UCHL3 A11I

**Q.** And the “protein species observed” value (UCHL3 L168F)?
**A.** free UCHL3 L168F

**Q.** What about the remaining activity at 0.000610352 µM (UCHL1 [7]; [15]) of the same compound?
**A.** 98.8%

**Q.** What about the remaining activity at 0.0012207 µM (UCHL1 [7]; [15]) of the same compound?
**A.** 96.5%

**Q.** And the remaining activity at 0.00244141 µM (UCHL1 [7]; [15])?
**A.** 95%

**Q.** And the remaining activity at 0.00488281 µM (UCHL1 [7]; [15])?
**A.** 91.2%

**Q.** What about the remaining activity at 0.00976562 µM (UCHL1 [7]; [15]) of the same compound?
**A.** 85.3%

**Q.** And the remaining activity at 0.0195312 µM (UCHL1 [7]; [15])?
**A.** 76.8%

**Q.** And the remaining activity at 0.0390625 µM (UCHL1 [7]; [15])?
**A.** 65.7%

**Q.** What about the remaining activity at 0.078125 µM (UCHL1 [7]; [15]) of the same compound?
**A.** 44.1%

**Q.** What about the remaining activity at 0.15625 µM (UCHL1 [7]; [15]) of the same compound?
**A.** 23.2%

**Q.** What about the remaining activity at 0.3125 µM (UCHL1 [7]; [15]) of the same compound?
**A.** 8.06%

**Q.** What about the remaining activity at 0.625 µM (UCHL1 [7]; [15]) of the same compound?
**A.** 3.5%

**Q.** What about the remaining activity at 1.25 µM (UCHL1 [7]; [15]) of the same compound?
**A.** 2.31%

**Q.** And the remaining activity at 2.5 µM (UCHL1 [7]; [15])?
**A.** 3.03%

**Q.** And the remaining activity at 5 µM (UCHL1 [7]; [15])?
**A.** 1.18%

**Q.** What about the remaining activity at 10 µM (UCHL1 [7]; [15]) of the same compound?
**A.** 0.488%

**Q.** And the IC50 (UCHL1 [7]; 1 h preincubation, mean ± SD of independent experiments, read-out: IC50 (UCHL1))?
**A.** 50 nM

**Q.** And the IC50 (UCHL1 [7]; Fig. 6b, catalytic domain, 1 h preincubation with GK13S, read-out: IC50 (UCHL1))?
**A.** 87 ± 8 nM

**Q.** What about the “normalized UCHL1 activity” value (UCHL1 [7]; [8]) of the same compound?
**A.** 0.9506 and 0.9879 and 1.014 and 0.9975 and 0.9955

**Q.** What about the “normalized UCHL1 activity” value (UCHL1 [7]; [9]) of the same compound?
**A.** 0.9497 and 0.9646 and 1.019 and 1.0024 and 0.9988

**Q.** And the “normalized UCHL1 activity” value (UCHL1 [7]; [10])?
**A.** 0.9185 and 0.9495 and 1.017 and 0.9974 and 0.9924

**Q.** What about the “normalized UCHL1 activity” value (UCHL1 [7]; [11]) of the same compound?
**A.** 0.8798 and 0.9115 and 1.0474 and 0.9893 and 0.9704

**Q.** And the “normalized UCHL1 activity” value (UCHL1 [7]; [12])?
**A.** 0.8185 and 0.8529 and 0.9722 and 1.013 and 0.9579

**Q.** And the “normalized UCHL1 activity” value (UCHL1 [7]; [13])?
**A.** 0.7093 and 0.7679 and 0.9238 and 0.9667 and 0.9242

**Q.** What about the “normalized UCHL1 activity” value (UCHL1 [7]; [14]) of the same compound?
**A.** 0.5709 and 0.6568 and 0.8808 and 0.9371 and 0.8799

**Q.** What about the IC50 (UCHL1 [7]; source data Fig. 3b, 1 h preincubation, read-out: Averaged IC50s from independent experiments (single experiments)) of the same compound?
**A.** 36 nM and 65 nM and 49 nM

**Q.** And the “protein species observed” value (UCHL3 A11I,L168F)?
**A.** + 1x GK13S
